For data set [1], the target named is T1, FolR1 on Hela, Skov3, OVCAR5, HT29, MKN45 tumor cells (Homo sapiens, UniProt P15328).
T1 construct: endogenous in cells; host or cells: tumour cell line panel (HeLa, SKOV3, OVCAR5, HT-29; MKN-45 as FolR1-negative line)
The experiment in a line: Binding to tumor cells with different FolR1 expression levels (flow cytometry). The source says: FIGS. 6A-E depict graphs summarizing binding of FolR1 IgGs to cells with different FolR1 expression levels. […] DP47 IgG was included as isotype control and MKN-45 were included as FolR1 negative cell line.
The FolR1 TCBs were used to determine T cell mediated killing of tumor cells expressing FoLR1. A panel of potential target cell lines was used to determine FoLR1 binding sites by Qifikit analysis.
The used panel of tumor cells contains FolR1 high, intermediate and low expressing tumor cells and a FolR1 negative cell line.
The amount of bound construct is proportional to the FolR1 expression level and there is still good binding of the constructs to the FolR1 low cell line HT-29 detectable. […] DP47 TCB is an untargeted TCB and was prepared as described in WO2014/131712.

Data set [2] has as its system SKOV3 cells. The experiment in a line: T cell mediated killing (LDH release). The class given is cell-based, human. As to conditions: SKOV3 and HT-29 cells, used concentrations. On the procedure: FIGS. 7A-L depict graphs summarizing T cell mediated killing of HT-29 and SKOV3 cells. FolR1 TCBs were used to test T cell mediated killing of HT-29 and SKOV3 tumor cells and upregulation of activation marker on T cells upon killing. […] DP47 TCB was included as negative control. After 48 h incubation upregulation of the activation marker CD25 and CD69 on CD8 T cells and CD4 T cells upon killing of SKOV3 (FIGS. 7E-H) or HT-29 (FIG. 7I-L) tumor cells was assessed by flow cytometry.
Overall killing of SKOV3 cells was higher compared to HT-29 which reflects the higher expression levels of FolR1 on SKOV3 cells (FIGS. 7A-D). In line with this, a strong upregulation of the activation marker CD25 and CD69 on CD4^+ T cells and CD8^+ T cells was detected. Activation of T cells was very similar in the presence of SKOV3 cells and HT-29 cells.

Data set [3] concerns T cells in FolR1 positive tumor digests or malignant effusions. The experiment in a line: Ex vivo treatment of tumor samples with FolR1-TCB (T cell activation and effector function). Type of data set: cell-based, human. Particulars: 24 h. The method, then:
FolR1 positive tumor digests or malignant effusions were thawed, washed and plated in 96-well flat bottom cell culture plates (BD Falcon) with a density of […] cells/200 μl/well in complete medium (DMEM+Sodium Pyruvate (1 mM)+MEM non essential AA (1×)+L-Glutamin (2 mM)+Penicillin/Streptomycin ([…])+2-Mercaptoethanol (50 nM)+Ciproxin (1 mg/ml)+10% human Serum). The samples were cultured in the presence or absence of FolR1-TCB or DP47 TCB at a concentration of 2 nM for 24 h. Activation of CD8^+ and CD4^+ T cells (CD45^+CD3^+) upon FolR1-TCB treatment was determined by multicolor flow cytometry by measuring the expression of the cell surface markers CD25, CD69, CD137, ICOS, PD-1 and Tim-3. Furthermore the expression of granzyme B and IFN-γ was determined by intracellular staining. […]
We analyzed whether the expression of inhibitory receptors could be correlated with a diminished T-cell functionality upon FolR1-TCB treatment.

In data set [4] the test system is SKOV3 cells. The experiment in a line: Killing assay with tumor samples and CFSE-labelled Skov3 cells. The class given is cell-based. On the procedure: To determine the FolR1-TCB induced tumor cell killing, 3×10^4 CFSE-labelled Skov3 cells were cocultured with tumor samples in the presence or absence of FolR1-TCB at a concentration of 2 nM for 24 h in 96-well flat bottom cell culture plates. The E:T ratio (E: effector CD45+CD3+ cells; T: target FolR1^+ cells from tumor and added Skov3 cells) was adjusted to 1:1 in each well and the cell number of the added tumor samples was calculated for each sample according to prior characterization by flow cytometry. Cell death of Skov3 cells was determined by flow cytometry by measuring activated caspase 3 and the live/dead marker Live/Dead-near-IR. The assay was performed in triplicates. The FolR1-TCB mediated killing was calculated according to the following equation: % of specific killing=100−[(% of Skov3 live cells in FolR1-TCB treated sample/% of Skov3 live cells in untreated sample)×100].
To compare the FolR1-TCB-induced killing capacity of T-cells between tumor samples, and to exclude additional factors suppressing T-cell functionality, such as expression of PD-L1 on the tumor cells, we exogenously added CFSE-labeled FolR1^+ Skov3 cells to the tumor digests and adjusted the E:T ratio to 1:1, essentially as described above. We then measured the FolR1-TCB-induced killing of CFSE-labeled Skov3 cells, which allowed us to also include FolR1^− tumor samples into the analysis. […]

Data set [5] relates to PBMCs co-cultured with Skov3. The experiment in a line: Activation of T-cells from healthy donors by FolR1-TCB (PBMC co-cultured with Skov3). The class given is cell-based, human. Particulars: 0.6 pM to 2 nM, 24 h. The method, then:
FIGS. 40A-C show activation of CD8^+ T-cells upon exposure to increasing concentrations of FolR1-TCB. PBMCs were co-cultured with Skov3 cells for 24 h in the presence or absence of FolR1-TCB or the unspecific control DP-47-TCB. […] Shaded histogram: isotype control; open histogram: anti-FolR1-antibody. FIG. 40B: The expression of the activation markers CD25, CD137, and ICOS on CD8^+ T-cells was determined by flow cytometry. FIG. 40C: IFN-v.
To assess the effect of FolR1-TCB on T-cell activation peripheral blood mononuclear cells (PBMCs) from healthy donors were co-cultured with the FolR1^+ ovarian cancer cell line Skov3 (FIG. 40A). […] In addition, T-cells secreted IL-2, IFN-γ, and TNF.

In data set [6] the test system is T cells in EpCAM positive tumor digests or malignant effusions. The experiment in a line: Ex vivo treatment of tumor samples with catumaxomab. The class given is cell-based, human. Particulars: 4 NSCLC tumor digests, 10 ng/ml, 24 h. On the procedure:
The trifunctional TCB catumaxomab (Removab®) was obtained from Fresenius. The experimental conditions were similar as indicated above for FolR1-TCB. Briefly, EpCAM positive tumor digests or malignant effusions were cultured in the presence or absence of catumaxomab at a concentration of 10 ng/ml for 24 h. Analysis of CD8^+ and CD4^+ positive T cells (CD45+CD3+) was performed as described above.
To determine to which extent catumaxomab induces T cell activation and to confirm the findings described above using a second, independent T cell bispecific molecule, 4 tumor digests from patients with NSCLC were exposed to catumaxomab, a trifunctional bispecific antibody recognizing CD3 on T cells and EpCAM on tumor cells. Then, T cells were characterized by flow cytometry for expression of activation markers and T cell effector functions (FIG. 17A-D). […] Accordingly, the baseline expression of inhibitory receptors differed between the patients (FIG. 17E-H).

Another data set has as its system T cells in tumor digests. The experiment in a line: Polyclonal stimulation with anti-CD3/CD28 antibodies and PD-1 blockade. Type of data set: cell-based, human. As to conditions: 10 μg/ml, 24 hrs.
In data set [7] the test system is T cells in FolR1+ tumor digests or malignant effusions. The experiment in a line: FolR1-TCB with PD-1 blockade in tumor digests or malignant effusions (cytokine secretion). As to conditions: combined with FolR1-TCB. The class given is cell-based, human. The method, then:
FIG. 38A-D: FolR1^+ tumor digests or malignant effusions were cultured for 24 h with FolR1-TCB in the presence or absence of a PD-1 blocking antibody. […] The increase in cytokine secretion upon combined FolR1-TCB and anti-PD-1 treatment compared with FolR1-TCB alone was determined in PD-1^hi scarce and abundant tumors. FIG. 38E: Tumor digests or malignant effusions were co-cultured with exogenously added fluorescently labeled Skov3 cells at an E:T ratio of 1:1 for 24 h in the presence or absence of a PD-1 blocking antibody and FolR1-TCB. The increase in specific killing by the anti-PD-1 antibody was compared in PD-1^hi scarce and abundant tumors. p-values were calculated using the unpaired Mann-Whitney test.
As the level of PD-1 expression on TILs correlates with the efficacy of FolR1-TCB, we analyzed whether blockade of the PD-1/PD-L1 axis in combination with FolR1-TCB treatment might be able to restore T-cell function.

The subject of data set [8] is CD4+ and CD8+ T cells in whole blood. The experiment in a line: T cell activation in whole blood. The class given is cell-based, human. Particulars: 24 h after addition. The source says:
FIGS. 9A-D depict graphs summarizing activation marker upregulation in whole blood.
DP47 TCB was included as negative control.

These results are taken from patent publication US11613587B2, “Combination therapy of T cell activating bispecific antigen binding molecules and PD-1 axis binding antagonists” (Hoffmann-La Roche Inc., priority 2014, dated 2023).

T1 sequence (P15328 25-257): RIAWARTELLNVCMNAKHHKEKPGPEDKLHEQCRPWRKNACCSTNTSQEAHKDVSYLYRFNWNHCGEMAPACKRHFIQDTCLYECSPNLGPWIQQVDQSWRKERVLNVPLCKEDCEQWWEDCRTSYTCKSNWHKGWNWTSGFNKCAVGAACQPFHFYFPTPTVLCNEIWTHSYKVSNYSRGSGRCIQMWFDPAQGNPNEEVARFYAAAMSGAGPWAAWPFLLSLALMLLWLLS

“DP47 TCB: untargeted TCB, negative control, prepared as described in WO2014/131712”: in data set [1], the “binding to panel of tumor cell lines” value is on record as “no binding”. Also, the “induction of tumor cell killing” value in the data set with SKOV3 cells [2] is on record as “does not induce any killing”. The T cell activation result in [3] is “did not induce any T cell activation”. For the same substance, the tumor cell killing entry with SKOV3 cells [4] (E:T 1:1, 24 h) is listed as “did not induce any tumor cell killing”. The “T-cell activation (CD25, CD137, ICOS)” value in [5] is listed as “did not induce any T-cell activation”.
Consider catumaxomab, for which the “catumaxomab induced T cell activation” value in [6] is listed as “striking heterogeneity”.
Consider nivolumab: PD-1 blocking antibody, for which the “cytotoxic tumor cell killing upon additional PD-1 blockade” value in the data set on SKOV3 cells [4] (combined with FolR1-TCB, PD-1hi scarce and abundant tumors) is recorded as “could neither be improved”. Moreover, the “restoration of T cell effector function (IL-2, IFN-γ, TNF-α)” value in the data set on T cells in tumor digests is reported as “only in some patients”. Moreover, the “secretion of IFN-γ, TNF, IL-2 and perforin upon PD-1 blockade” value in data set [7] (PD-1hi abundant tumors) is “failed to elicit any response”; in [7] (PD-1hi scarce tumors), “could be increased only in some of the PD-hi scarce tumors”.
For the substance “Mov19 TCB: reference FolR1/CD3 T-cell bispecific with Mov19 binder [reference compound]”, the “upregulation of CD25 and CD69 on CD4+ and CD8+ T cells in whole blood” value in data set [8] is “No activation of T cells”.
